Data reported in article PMC7680425 (Cell chemical biology, 2020).

Tests used:
PfROM4 [1] = assay: Merozoite adhesin shedding assay: EBA175 shedding by PfROM4; format: cell-based, P. falciparum; conditions: 10μM RiKa (p=0.0014) or 25mM EGTA, 90 min at 37°C
PfROM4 [2] = format: cell-based, P. falciparum; conditions: transfected HEK293T cells

Compound: O=C(O)CN(CCOCCOCCN(CC(=O)O)CC(=O)O)CC(=O)O [EGTA]
- shedding of EBA175 by PfROM4 from free merozoites (PfROM4 [1]): did not inhibit

Compound: Ac-KRFRSMQYSA-CHO (Ac-KRFRSMQYSA-aldehyde; SMILES CSCC[C@H](NC(=O)[C@H](CO)NC(=O)[C@H](CCCNC(=N)N)NC(=O)[C@H](Cc1ccccc1)NC(=O)[C@H](CCCNC(=N)N)NC(=O)[C@H](CCCCN)NC(C)=O)C(=O)N[C@@H](CCC(N)=O)C(=O)N[C@@H](Cc1ccc(O)cc1)C(=O)N[C@@H](CO)C(=O)N[C@@H](C)C=O)
- inhibition of EBA175 processing by PfROM4 (PfROM4 [2]): abrogated PfROM4 inhibition
